In patent publication US9738642B2, “Triazolopyridine ether derivatives and their use in neurological and pyschiatric disorders” (BRISTOL-MYERS SQUIBB COMPANY, priority 2013, dated 2017):

Target: T1, human mGluR2 (Homo sapiens, UniProt Q14416)
T1 construct: expressed in transfected cells; host or cells: HEK293 clonal line
Test: mGluR2 cAMP assay
Type: cell-based
Details: clonally expressed human mGluR2 in HEK293; 1 μM forskolin, 1 μM LY-341495, 30 min; CISBIO cAMP kit; read-out: EC50 (nM), activity in mGluR2 cAMP assay

T1 sequence (Q14416 19-872): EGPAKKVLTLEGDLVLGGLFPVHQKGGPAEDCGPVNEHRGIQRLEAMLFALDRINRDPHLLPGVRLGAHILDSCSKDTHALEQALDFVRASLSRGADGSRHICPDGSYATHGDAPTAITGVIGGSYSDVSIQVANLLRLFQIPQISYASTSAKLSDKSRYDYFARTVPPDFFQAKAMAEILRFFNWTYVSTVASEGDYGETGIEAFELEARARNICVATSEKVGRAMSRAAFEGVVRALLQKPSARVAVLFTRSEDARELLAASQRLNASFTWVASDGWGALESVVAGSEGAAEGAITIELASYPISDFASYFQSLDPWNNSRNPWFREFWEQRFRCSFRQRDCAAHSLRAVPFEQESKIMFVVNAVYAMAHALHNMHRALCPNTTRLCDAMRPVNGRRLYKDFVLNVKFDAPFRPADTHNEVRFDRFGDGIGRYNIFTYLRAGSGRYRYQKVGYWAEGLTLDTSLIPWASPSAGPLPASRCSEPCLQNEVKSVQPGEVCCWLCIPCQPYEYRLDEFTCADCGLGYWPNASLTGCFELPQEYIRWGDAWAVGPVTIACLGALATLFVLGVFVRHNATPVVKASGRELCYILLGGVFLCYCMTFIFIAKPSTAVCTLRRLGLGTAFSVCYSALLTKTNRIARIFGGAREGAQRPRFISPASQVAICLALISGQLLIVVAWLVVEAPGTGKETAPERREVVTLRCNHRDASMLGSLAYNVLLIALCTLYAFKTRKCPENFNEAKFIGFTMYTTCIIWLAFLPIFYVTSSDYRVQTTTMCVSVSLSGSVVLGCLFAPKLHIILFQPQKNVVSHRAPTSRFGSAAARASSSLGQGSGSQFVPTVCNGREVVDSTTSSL

- EC50: 0.5 nM
SMILES: [2H]C([2H])([2H])O[C@]1(c2ccc(F)cc2)CC[C@H](Oc2ccn3c(CC4CC4)nnc3c2C(F)(F)F)CC1 [Example 99, 3-(Cyclopropylmethyl)-7-((1s,4s)-4-(4-fluorophenyl)-4-(methoxy-d3)cyclohexyloxy)-8-(trifluoromethyl)-[1,2,4]triazolo[4,3-a]pyridine]
